Assay results from patent US4330529A, “Antibacterial composition” (Fujisawa Pharmaceutical Co., Ltd., priority 1979, dated 1982).
Like-named read-outs stand apart in the source and are kept apart here.

Columns and labels:
Staphylococcus aureus 3 = test: MIC and FIC, Nutrient agar (Tests 6, 7); type: cell-based; conditions: Staphylococcus aureus; S. aureus 3; 18 h; read-out: MIC
Method: (§9) FIC values and FIC Index were calculated in substantially the same manner as described in Test 1.

Citrobacter freundii 35 = test: MIC and FIC, Nutrient agar (Tests 6, 7, 9); type: cell-based
Enterobacter aerogenes 7 = test: MIC and FIC, Nutrient agar (Tests 6, 7, 9); type: cell-based; conditions: Klebsiella aerogenes; E. aerogenes 7; 18 h; read-out: MIC
Method: as §9

[1] = tested on: Enterobacter aerogenes 1402-10; test: MIC and FIC, Nutrient agar (Tests 2, 3); type: cell-based; conditions: Klebsiella aerogenes, 140210; E. aerogenes 1402-10; 20 h; read-out: MIC
Proteus morganii 1433-2 = test: MIC and FIC, Nutrient agar (Tests 2, 3); type: cell-based; conditions: Morganella morganii, 14332; P. morganii 1433-2; 20 h
Method: (§10) After the incubation was carried out at 37° C. for 20 hours, MIC values were determined.

[2] = tested on: Pseudomonas aeruginosa 1101-76; test: MIC and FIC, Nutrient agar (Test 3); type: cell-based; conditions: Pseudomonas aeruginosa, 110176; P. aeruginosa 1101-76; 20 h; read-out: MIC
[3] = tested on: Serratia marcescens 1421-4; test: MIC and FIC, Nutrient agar (Tests 2, 3); type: cell-based
Proteus rettgeri 1434-3 = test: MIC and FIC, Nutrient agar (Test 3); type: cell-based; conditions: Providencia rettgeri, 14343; P. rettgeri 1434-3; 20 h
Method: as §10, §9

Proteus vulgaris 7 = test: MIC and FIC, Nutrient agar (Tests 7, 9); type: cell-based; conditions: Proteus vulgaris; P. vulgaris 7; 18 h; read-out: MIC
[4] = tested on: Escherichia coli 1341-18R^+; test: MIC and FIC, Nutrient agar (Test 3); type: cell-based; conditions: 20 h
[5] = tested on: Klebsiella pneumoniae NCTC 418; test: MIC and FIC, Nutrient agar (Tests 2, 3); type: cell-based; conditions: NCTC418, K. pneumoniae NCTC 418, 20 h
Method: as §10

[6] = tested on: Staphylococcus epidermidis 1601-1; test: MIC and FIC, Nutrient agar (Tests 2, 3); type: cell-based; conditions: 16011, S. epidermidis 1601-1, 20 h
Method: as §10

[7] = tested on: Enterobacter cloacae 1401-4; test: MIC and FIC, Nutrient agar (Tests 2, 3); type: cell-based; conditions: Enterobacter cloacae, 14014; E. cloacae 1401-4; 20 h; read-out: MIC
[8] = tested on: Pseudomonas aeruginosa 1101-7; type: in vivo, mice (ICR-strain male); conditions: P. aeruginosa 1101-7
Method: (§1) ICR-strain male mice weighing 23-25 g (10 mice per one group) were used. A prescribed amount of the pathogenic bacteria suspended in 5% aqueous mucin suspension (0.5 ml.) was inoculated intraperitoneally into each mouse. One hour after the inoculation, the antibiotics as mentioned in the following table were administered subcutaneously, and then survival of the test mice was measured one week after the infection to determine ED50 value.
(§2) Incidentally, FIC values and FIC index in this in vivo test also calculated from the determined ED50 values according to the following calculation method.
(§3) On the basis of the fact that the combination ratio of a mixture of monosodium salt of 3-(N-acetyl-N- hydroxyamino)propylphosphonic acid and monosodium salt of nocardicin A is 1:1 (by weight), each of FIC values and FIC index was calculated according to the following equations.
(§4) FIC of monosodium salt of 3-(N-acetyl-N-hydroxyamino)propylphosphonic acid=1/2 C'ab/A'o
(§5) FIC of monosodium salt of nocardicin A=1/2 C'ab/B'o
(§6) FIC index=1/2 C'ab/A'o+1/2 C'ab/B'o

[9] = tested on: Pseudomonas aeruginosa 1101-5; type: in vivo, mice (ICR-strain male); conditions: P. aeruginosa 1101-5
Method: as §1, §2, §3, §4, §5, §6

[10] = tested on: Salmonella typhimurium 1406; test: MIC and FIC, Nutrient agar (Tests 2, 3); type: cell-based; conditions: Salmonella enterica; S. typhimurium 1406; 20 h; read-out: MIC
[11] = tested on: Serratia marcescens 1421-1; test: microbe, parasite or virus in culture; type: cell-based; conditions: S. marcescens 1421-1
Method: (§7) Further, in order to observe the degree of synergistic antimicrobial activity, Fractional Inhibitory Concentration (FIC) values and FIC Index were calculated from the determined MIC values according to the following calculation method, respectively.
(§8) In the case that the combination ratio of a mixture of monosodium salt of 3-(N-acetyl-N-hydroxyamino)propylphosphonic acid and monosodium salt of nocardicin A is m:n (by weight), each of FIC values and FIC indexes was calculated according to the following equations. [formula]

[12] = tested on: Pseudomonas aeruginosa 1101-63; test: microbe, parasite or virus in culture; type: cell-based; conditions: P. aeruginosa 1101-63
Method: as §7, §8

[13] = tested on: Klebsiella pneumoniae 1391-1; test: microbe, parasite or virus in culture; type: cell-based; conditions: K. pneumoniae 1391-1
Method: as §7, §8

[14] = tested on: Serratia marcescens 1421-3; test: microbe, parasite or virus in culture; type: cell-based; conditions: S. marcescens 1421-3
Method: as §7, §8

[15] = tested on: Serratia marcescens 1421-4; test: microbe, parasite or virus in culture; type: cell-based; conditions: S. marcescens 1421-4
Method: as §7, §8

[16] = tested on: Proteus mirabilis 1432-75; test: MIC and FIC, Nutrient agar (Tests 2, 3); type: cell-based; conditions: Proteus mirabilis, 143275, 20 h
[17] = tested on: Pseudomonas aeruginosa 1101-67; test: MIC and FIC, Nutrient broth (Test 1); type: cell-based; conditions: P. aeruginosa 1101-67
Method: as §7, §8

[18] = tested on: Pseudomonas aeruginosa 1101-66; test: MIC and FIC, Nutrient broth (Test 1); type: cell-based; conditions: P. aeruginosa 1101-66
Method: as §7, §8

Escherichia coli 1341-27 = test: MIC and FIC, Nutrient broth (Test 1); type: cell-based; conditions: E. coli 1341-27
Method: as §7, §8

[19] = tested on: Klebsiella pneumoniae 1391-5; test: MIC and FIC, Nutrient broth (Test 1); type: cell-based; conditions: K. pneumoniae 1391-5
Method: as §7, §8

[20] = tested on: Klebsiella pneumoniae 1391-2; test: MIC and FIC, Nutrient broth (Test 1); type: cell-based; conditions: K. pneumoniae 1391-2
Method: as §7, §8

Escherichia coli 1341-35 = test: MIC and FIC, Nutrient broth (Test 1); type: cell-based; conditions: E. coli 1341-35
Method: as §7, §8

[21] = tested on: Pseudomonas aeruginosa 1101-64; test: MIC and FIC, Nutrient broth (Test 1); type: cell-based; conditions: P. aeruginosa 1101-64
Method: as §7, §8

[22] = tested on: Serratia marcescens 1421-5; test: MIC and FIC, Nutrient broth (Test 1); type: cell-based; conditions: S. marcescens 1421-5
Method: as §7, §8

[23] = tested on: Pseudomonas aeruginosa 1101-68; test: MIC and FIC, Nutrient broth (Test 1); type: cell-based; conditions: P. aeruginosa 1101-68
Method: as §7, §8

[24] = tested on: Klebsiella pneumoniae 1391-3; test: MIC and FIC, Nutrient broth (Test 1); type: cell-based; conditions: K. pneumoniae 1391-3
Method: as §7, §8

[25] = s.c. 1 h after i.p. inoculation, survival at one week

Work on NC[C@H]1O[C@H](O[C@H]2[C@H](O)[C@@H](O[C@H]3O[C@H](CO)[C@@H](O)[C@H](N)[C@H]3O)[C@H](N)C[C@@H]2N)[C@H](N)C[C@@H]1O [B (Table 9), Tobramycin] yielded an MIC (Staphylococcus aureus 3) of 0.39 µg/mL, an MIC (Citrobacter freundii 35; Citrobacter freundii, 35, 18 h) of 3.13 µg/mL and an MIC (Enterobacter aerogenes 7) of 6.25 µg/mL.
Cc1nnc(SCC2=C(C(=O)O)N3C(=O)[C@@H](NC(=O)Cn4cnnn4)[C@H]3SC2)s1 [B (Table 3), cefazolin] showed an MIC [1] of 12.5 µg/mL, an MIC (Proteus morganii 1433-2) of 25 µg/mL and an MIC [2] of no less than 400 µg/mL. The MIC ([3]; Serratia marcescens, 14214, S. marcescens 1421-4, agar, 20 h, read-out: MIC) was 400 µg/mL, the MIC (Proteus rettgeri 1434-3) was 6.25 µg/mL and the MIC (Proteus vulgaris 7) was 100 µg/mL. The MIC (Citrobacter freundii 35; Citrobacter freundii, C. freundii 35, 18 h, read-out: MIC) was 50 µg/mL, the MIC [4] was 3.13 µg/mL and the MIC [5] was 1.56 µg/mL. It also gave an MIC [6] of 0.39 µg/mL and an MIC [7] of no less than 400 µg/mL.
In the case of N[C@H](CCOc1ccc(/C(=N/O)C(=O)N[C@H]2CN([C@@H](C(=O)O)c3ccc(O)cc3)C2=O)cc1)C(=O)O [B (Table 1), nocardicin A], the FIC ([8]; in 1:1 mixture C, from ED50) is reported as 0.083, the ED50 [8, 25] is reported as 15.0 mg/mouse and the FIC ([9]; in 1:1 mixture C, from ED50) is reported as 0.273. The ED50 [9, 25] was 1.3 mg/mouse, the MIC [10] was 25 µg/mL and the MIC ([3]; Serratia marcescens, 14214, 20 h) was 25 µg/mL. For the same molecule, the FIC ([11]; in 1:1 mixture C) was 0.063, the MIC ([11]; Serratia marcescens, 14211, 20 h, read-out: MIC) was 100 µg/mL and the FIC ([12]; in 1:1 mixture C) was 0.125. The MIC ([12]; Pseudomonas aeruginosa, 110163, 20 h, read-out: MIC) was 400 µg/mL, the FIC ([13]; in 1:1 mixture C) was 0.063 and the MIC ([13]; Klebsiella pneumoniae, 13911, 20 h, read-out: MIC) was 800 µg/mL. It also gave an FIC ([14]; in 1:1 mixture C) of 0.125, an MIC ([14]; Serratia marcescens, 14213, 20 h, read-out: MIC) of 400 µg/mL and an FIC ([15]; in 1:1 mixture C) of 0.063. For the same molecule, the MIC ([15]; Serratia marcescens, 14214, broth, 20 h, read-out: MIC) was 400 µg/mL, the MIC [5] was 200 µg/mL and the MIC [16] was 3.13 µg/mL. The FIC ([17]; in 1:1 mixture C) was 0.250, the MIC ([17]; Pseudomonas aeruginosa, 110167, 20 h, read-out: MIC) was 200 µg/mL and the FIC ([18]; in 1:1 mixture C) was 0.250. For the same molecule, the MIC ([18]; Pseudomonas aeruginosa, 110166, 20 h, read-out: MIC) was 100 µg/mL, the FIC (Escherichia coli 1341-27; in 1:1 mixture C) was 0.250 and the MIC (Escherichia coli 1341-27; Escherichia coli, 134127, 20 h, read-out: MIC) was 100 µg/mL. The FIC ([19]; in 1:1 mixture C) was 0.125, the MIC ([19]; Klebsiella pneumoniae, 13915, 20 h, read-out: MIC) was 800 µg/mL and the FIC ([20]; in 1:1 mixture C) was 0.250. The MIC ([20]; Klebsiella pneumoniae, 13912, 20 h, read-out: MIC) was 800 µg/mL, the FIC (Escherichia coli 1341-35; in 1:1 mixture C) was 0.250 and the MIC (Escherichia coli 1341-35; Escherichia coli, 134135, 20 h, read-out: MIC) was 100 µg/mL. For the same molecule, the FIC ([21]; in 1:1 mixture C) was 0.125, the MIC ([21]; Pseudomonas aeruginosa, 110164, 20 h, read-out: MIC) was 200 µg/mL and the FIC ([22]; in 1:1 mixture C) was 0.063. The MIC ([22]; Serratia marcescens, 14215, 20 h, read-out: MIC) was 200 µg/mL, the FIC ([23]; in 1:1 mixture C) was 0.250 and the MIC ([23]; Pseudomonas aeruginosa, 110168, 20 h, read-out: MIC) was 100 µg/mL. It also gave an FIC ([24]; in 1:1 mixture C) of 0.250 and an MIC ([24]; Klebsiella pneumoniae, 13913, 20 h, read-out: MIC) of 800 µg/mL.
